Experimental findings from BindingDB's records for doi:10.7270/Q24X5684 (Nmmlsc, 2010) are described below.

In this experiment the target is T1, Integrin alpha-4 (Homo sapiens, UniProt P13612).
T1 sequence (P13612 whole entry): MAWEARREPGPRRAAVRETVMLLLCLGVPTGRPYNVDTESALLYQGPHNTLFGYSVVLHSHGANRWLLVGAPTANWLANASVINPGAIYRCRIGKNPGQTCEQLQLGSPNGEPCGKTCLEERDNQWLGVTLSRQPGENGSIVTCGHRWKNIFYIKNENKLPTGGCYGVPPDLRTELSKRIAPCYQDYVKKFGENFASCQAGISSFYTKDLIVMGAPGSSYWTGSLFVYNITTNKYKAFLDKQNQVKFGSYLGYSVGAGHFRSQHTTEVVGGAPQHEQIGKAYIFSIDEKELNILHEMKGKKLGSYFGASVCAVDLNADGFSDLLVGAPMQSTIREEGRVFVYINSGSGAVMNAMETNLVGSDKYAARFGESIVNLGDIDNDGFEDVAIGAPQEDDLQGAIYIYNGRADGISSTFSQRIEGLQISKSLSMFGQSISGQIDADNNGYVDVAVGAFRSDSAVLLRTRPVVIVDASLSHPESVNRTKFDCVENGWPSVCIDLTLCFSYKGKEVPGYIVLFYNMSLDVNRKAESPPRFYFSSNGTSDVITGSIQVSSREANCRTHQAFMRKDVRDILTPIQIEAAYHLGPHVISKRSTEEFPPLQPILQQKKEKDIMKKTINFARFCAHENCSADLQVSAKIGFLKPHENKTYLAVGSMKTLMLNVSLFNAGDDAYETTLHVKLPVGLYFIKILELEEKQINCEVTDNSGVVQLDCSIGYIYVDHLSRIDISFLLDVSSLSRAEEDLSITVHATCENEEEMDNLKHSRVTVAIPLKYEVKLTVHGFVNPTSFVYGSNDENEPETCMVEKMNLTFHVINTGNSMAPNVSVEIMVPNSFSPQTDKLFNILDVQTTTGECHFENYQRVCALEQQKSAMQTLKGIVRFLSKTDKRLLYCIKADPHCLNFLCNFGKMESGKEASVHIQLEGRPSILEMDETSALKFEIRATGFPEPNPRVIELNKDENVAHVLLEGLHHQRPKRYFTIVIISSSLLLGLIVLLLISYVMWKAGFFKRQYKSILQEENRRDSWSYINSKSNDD
The experiment in a line: VLA-4 integrin allosteric ligands, SAR follow-up, cell-based, LIBS antibody binding, flow cytometry (AID 488791).

For `Cc1ccc(NC(=O)c2cc(-n3c(O)ccc3O)ccc2N2CCOCC2)cc1Cl` [VU0419498-1], the 50% effective concentration (EC50) (as a rule, the concentration needed to bring the measured effect to its halfway point) turned out to be 23.3 µM. This counts as double-digit micromolar.

In the case of `Cc1ccc(NC(=O)c2cc(-n3c(O)ccc3O)ccc2N2CCOCC2)cc1`, a half-maximal response (EC50) required 16.4 µM. This EC50 and that of the molecule before are within 1.5-fold of each other.
